# Experimental data as given in ChEMBL document CHEMBL1667745, “Synthesis and antibacterial evaluation of novel clarithromycin derivatives with C-4″ elongated arylalkyl groups against macrolide-resistant strains” (2011).
# Legend:
# Assay type in all cases: functional
# Streptococcus pyogenes [1] = experiment: Antimicrobial activity against erythromycin-susceptible Streptococcus pyogenes S2 by broth microdilution method
# Streptococcus pyogenes [2] = experiment: Antimicrobial activity against erythromycin-resistant Streptococcus pyogenes R2 by broth microdilution method
# Staphylococcus aureus [3] = experiment: Antimicrobial activity against erythromycin-susceptible Staphylococcus aureus ATCC 25923 by broth microdilution method
# Streptococcus pneumoniae [4] = experiment: Antimicrobial activity against erythromycin-resistant Streptococcus pneumoniae AB11 expressing the erm and mef gene by broth microdilution method
# Streptococcus pneumoniae [5] = experiment: Antimicrobial activity against erythromycin-resistant Streptococcus pneumoniae B1 expressing the erm gene by broth microdilution method
# Streptococcus pneumoniae [6] = experiment: Antimicrobial activity against erythromycin-susceptible Streptococcus pneumoniae ATCC 49619 by broth microdilution method
# Staphylococcus aureus [7] = experiment: Antimicrobial activity against penicillin-susceptible Staphylococcus aureus P1 by broth microdilution method
# Streptococcus pneumoniae [8] = experiment: Antimicrobial activity against erythromycin-resistant Streptococcus pneumoniae A22072 expressing the mef gene by broth microdilution method
Compound,MIC (Streptococcus pyogenes [1]) [µg/mL],MIC (Streptococcus pyogenes [2]) [µg/mL],MIC (Staphylococcus aureus [3]) [µg/mL],MIC (Streptococcus pneumoniae [4]) [µg/mL],MIC (Streptococcus pneumoniae [5]) [µg/mL],MIC (Streptococcus pneumoniae [6]) [µg/mL],MIC (Staphylococcus aureus [7]) [µg/mL],MIC (Streptococcus pneumoniae [8]) [µg/mL]
CCCNC(=O)CCCNC(=O)O[C@H]1[C@H](C)O[C@@H](O[C@H]2[C@H](C)[C@@H](O[C@@H]3O[C@H](C)C[C@H](N(C)C)[C@H]3O)[C@](C)(OC)C[C@@H](C)C(=O)[C@H](C)[C@@H](O)[C@](C)(O)[C@@H](CC)OC(=O)[C@@H]2C)C[C@@]1(C)OC,1,32,0.25,128,128,0.03,32,4
CCCCNC(=O)CCCNC(=O)O[C@H]1[C@H](C)O[C@@H](O[C@H]2[C@H](C)[C@@H](O[C@@H]3O[C@H](C)C[C@H](N(C)C)[C@H]3O)[C@](C)(OC)C[C@@H](C)C(=O)[C@H](C)[C@@H](O)[C@](C)(O)[C@@H](CC)OC(=O)[C@@H]2C)C[C@@]1(C)OC,0.5,16,0.25,128,128,0.03,8,8
CCCCCNC(=O)CCCNC(=O)O[C@H]1[C@H](C)O[C@@H](O[C@H]2[C@H](C)[C@@H](O[C@@H]3O[C@H](C)C[C@H](N(C)C)[C@H]3O)[C@](C)(OC)C[C@@H](C)C(=O)[C@H](C)[C@@H](O)[C@](C)(O)[C@@H](CC)OC(=O)[C@@H]2C)C[C@@]1(C)OC,0.5,16,0.5,32,8,0.03,16,2
CC[C@H]1OC(=O)[C@H](C)[C@@H](O[C@H]2C[C@@](C)(OC)[C@@H](OC(=O)NCCCCCC(=O)NCc3ccccc3)[C@H](C)O2)[C@H](C)[C@@H](O[C@@H]2O[C@H](C)C[C@H](N(C)C)[C@H]2O)[C@](C)(OC)C[C@@H](C)C(=O)[C@H](C)[C@@H](O)[C@]1(C)O,0.12,0.25,0.5,64,64,0.03,8,2
CC[C@H]1OC(=O)[C@H](C)[C@@H](O[C@H]2C[C@@](C)(OC)[C@@H](OC(=O)NCCCCCC(=O)NCc3ccc(F)cc3)[C@H](C)O2)[C@H](C)[C@@H](O[C@@H]2O[C@H](C)C[C@H](N(C)C)[C@H]2O)[C@](C)(OC)C[C@@H](C)C(=O)[C@H](C)[C@@H](O)[C@]1(C)O,0.03,0.25,0.25,4,2,0.03,32,0.5
CC[C@H]1OC(=O)[C@H](C)[C@@H](O[C@H]2C[C@@](C)(OC)[C@@H](OC(=O)NCCCCCC(=O)NCc3ccc(OC)cc3)[C@H](C)O2)[C@H](C)[C@@H](O[C@@H]2O[C@H](C)C[C@H](N(C)C)[C@H]2O)[C@](C)(OC)C[C@@H](C)C(=O)[C@H](C)[C@@H](O)[C@]1(C)O,0.12,32,0.12,64,64,0.03,1,0.5
CC[C@H]1OC(=O)[C@H](C)[C@@H](O[C@H]2C[C@@](C)(OC)[C@@H](OC(=O)NCCCCCC(=O)NCCc3ccc(O)cc3)[C@H](C)O2)[C@H](C)[C@@H](O[C@@H]2O[C@H](C)C[C@H](N(C)C)[C@H]2O)[C@](C)(OC)C[C@@H](C)C(=O)[C@H](C)[C@@H](O)[C@]1(C)O,0.5,64,0.25,64,64,0.06,1,8
CC[C@H]1OC(=O)[C@H](C)[C@@H](O[C@H]2C[C@@](C)(OC)[C@@H](OC(=O)NCCCCCC(=O)NCCc3ccccc3Cl)[C@H](C)O2)[C@H](C)[C@@H](O[C@@H]2O[C@H](C)C[C@H](N(C)C)[C@H]2O)[C@](C)(OC)C[C@@H](C)C(=O)[C@H](C)[C@@H](O)[C@]1(C)O,0.06,64,0.25,32,64,0.03,0.5,1
CC[C@H]1OC(=O)[C@H](C)[C@@H](O[C@H]2C[C@@](C)(OC)[C@@H](OC(=O)NCCCCCC(=O)NC3CCCCC3)[C@H](C)O2)[C@H](C)[C@@H](O[C@@H]2O[C@H](C)C[C@H](N(C)C)[C@H]2O)[C@](C)(OC)C[C@@H](C)C(=O)[C@H](C)[C@@H](O)[C@]1(C)O,0.12,32,0.25,128,128,0.03,1,1
CC[C@H]1OC(=O)[C@H](C)[C@@H](O[C@H]2C[C@@](C)(OC)[C@@H](OC(=O)NCCCCCC(=O)NC(C)C)[C@H](C)O2)[C@H](C)[C@@H](O[C@@H]2O[C@H](C)C[C@H](N(C)C)[C@H]2O)[C@](C)(OC)C[C@@H](C)C(=O)[C@H](C)[C@@H](O)[C@]1(C)O,0.12,32,0.25,128,128,0.06,1,8
CCCNC(=O)CCCCCNC(=O)O[C@H]1[C@H](C)O[C@@H](O[C@H]2[C@H](C)[C@@H](O[C@@H]3O[C@H](C)C[C@H](N(C)C)[C@H]3O)[C@](C)(OC)C[C@@H](C)C(=O)[C@H](C)[C@@H](O)[C@](C)(O)[C@@H](CC)OC(=O)[C@@H]2C)C[C@@]1(C)OC,0.03,16,0.5,128,128,0.03,2,4
CCCCNC(=O)CCCCCNC(=O)O[C@H]1[C@H](C)O[C@@H](O[C@H]2[C@H](C)[C@@H](O[C@@H]3O[C@H](C)C[C@H](N(C)C)[C@H]3O)[C@](C)(OC)C[C@@H](C)C(=O)[C@H](C)[C@@H](O)[C@](C)(O)[C@@H](CC)OC(=O)[C@@H]2C)C[C@@]1(C)OC,0.25,8,0.25,128,128,0.06,8,1
CCCCCNC(=O)CCCCCNC(=O)O[C@H]1[C@H](C)O[C@@H](O[C@H]2[C@H](C)[C@@H](O[C@@H]3O[C@H](C)C[C@H](N(C)C)[C@H]3O)[C@](C)(OC)C[C@@H](C)C(=O)[C@H](C)[C@@H](O)[C@](C)(O)[C@@H](CC)OC(=O)[C@@H]2C)C[C@@]1(C)OC,0.25,16,0.5,128,128,0.03,8,4
CC[C@H]1OC(=O)[C@H](C)[C@@H](O[C@H]2C[C@@](C)(OC)[C@@H](O)[C@H](C)O2)[C@H](C)[C@@H](O[C@@H]2O[C@H](C)C[C@H](N(C)C)[C@H]2O)[C@](C)(O)C[C@@H](C)CN(C)[C@H](C)[C@@H](O)[C@]1(C)O [AZITHROMYCIN],0.03,8,0.25,256,128,0.03,0.12,4
CC[C@H]1OC(=O)[C@H](C)[C@@H](O[C@H]2C[C@@](C)(OC)[C@@H](O)[C@H](C)O2)[C@H](C)[C@@H](O[C@@H]2O[C@H](C)C[C@H](N(C)C)[C@H]2O)[C@](C)(OC)C[C@@H](C)C(=O)[C@H](C)[C@@H](O)[C@]1(C)O [CLARITHROMYCIN],0.03,4,0.12,128,64,0.03,0.03,4
CC[C@H]1OC(=O)[C@H](C)[C@@H](O[C@H]2C[C@@](C)(OC)[C@@H](O)[C@H](C)O2)[C@H](C)[C@@H](O[C@@H]2O[C@H](C)C[C@H](N(C)C)[C@H]2O)[C@](C)(O)C[C@@H](C)C(=O)[C@H](C)[C@@H](O)[C@]1(C)O [ERYTHROMYCIN],0.03,4,0.25,256,128,0.03,0.25,8
